Test results from patent publication US20250145665A1, “MACROCYCLIC PEPTIDES USEFUL AS MODULATORS OF TNF ALPHA” (Bristol-Myers Squibb Company, priority 2023, published 2025).
Read-outs that look alike come from different tables or passages of the source. Starred links: 1 amine or outer side, 2 acyl side, 3 side chain; linkers in the order of their positions; H or OH if unused. Positions of bridges follow the written chain, without caps; N, C: chain ends. Non-standard residues stand in square brackets, D forms with d. Residues, ends and D or L forms follow the SMILES beside them. *: point of attachment. Bip(4'-(3-HOOC-benzamido)) = N[C@@H](Cc1ccc(-c2ccc(NC(=O)c3cccc(C(=O)O)c3)cc2)cc1)C(=O)O; Bip(4'-NHBz) = N[C@@H](Cc1ccc(-c2ccc(NC(=O)c3ccccc3)cc2)cc1)C(=O)O; Bip(4'-NH) = O=C([C@H](Cc1ccc(-c2ccc(N[*:3])cc2)cc1)N[*:1])[*:2]; Bip(4'-COOH) = N[C@@H](Cc1ccc(-c2ccc(C(=O)O)cc2)cc1)C(=O)O; X42 = O=C(O)Cn1cc(C[C@H](NC(=O)c2ccccc2)C(=O)*)c2ccccc21; X11 = CC(=O)N[C@@H](Cc1cn(CC(=O)O)c2ccccc12)C(=O)*; Ala(morpholin-4-yl) = N[C@@H](CN1CCOCC1)C(=O)O; Benzoyl(3-OCH2COOH) = O=C(O)COc1cccc(C(=O)*)c1; Phe(3-CONH2) = NC(=O)c1cccc(C[C@H](N)C(=O)O)c1; Bip = N[C@@H](Cc1ccc(-c2ccccc2)cc1)C(=O)O; X67 = O=C(O)c1ccc(-c2cccc(C(=O)*)c2)cc1; Tiq1c(1S) = O=C(O)[C@H]1NCCc2ccccc21; X75 = O=C(O)Cn1ccc2c(C(=O)*)cccc21; 2Pal = N[C@@H](Cc1ccccn1)C(=O)O; Tic = O=C(O)[C@@H]1Cc2ccccc2CN1; Cha = N[C@@H](CC1CCCCC1)C(=O)O; Tle = CC(C)(C)[C@H](N)C(=O)O; Aze = O=C(O)[C@@H]1CCN1; Sar = CNCC(=O)O

Biological target: TNFα (Homo sapiens, UniProt P01375)
Sequence (P01375 77-233 limits assumed): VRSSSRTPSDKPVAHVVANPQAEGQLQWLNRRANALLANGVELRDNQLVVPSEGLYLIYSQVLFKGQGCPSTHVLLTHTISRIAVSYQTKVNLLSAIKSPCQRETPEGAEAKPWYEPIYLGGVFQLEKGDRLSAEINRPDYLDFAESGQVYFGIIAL
Assay: TNF-Induced HEK-Blue Assay
Type: cell-based
[1] = HEK-Blue-CD40L cells, NF-kB-driven secreted alkaline phosphatase reporter, TNFα 0.5 ng/ml, 18 h, read-out: TNF induced HEK-Blue assay IC50 value

Row | SMILES | IC50 [µM] | IC50 [1] [µM]
1 | CC[C@H](C)[C@@H]1NC(=O)[C@@H](CCCNC(=N)N)NC(=O)[C@H](CC(=O)O)NC(=O)[C@H](Cc2cnc[nH]2)NC(=O)CN(C)C(=O)[C@H](Cc2ccc(-c3ccc(NC(=O)c4ccccc4)cc3)cc2)NC(=O)[C@H](Cc2ccc(-c3ccc(C(=O)O)cc3)cc2)NC(=O)[C@H](CC2CCCCC2)NC(=O)CSC[C@@H](C(=O)NCC(N)=O)NC(=O)[C@H](CC(C)C)NC(=O)[C@H](Cc2cnc[nH]2)NC(=O)[C@H](C(C)C)NC(=O)[C@@H]2c3ccccc3CCN2C1=O [Example 373] ({CH2CO}-[Cha][Bip(4'-COOH)][Bip(4'-NHBz)][Sar]HD[dR]I[Tiq1c(1S)]VHLCG-NH2; thioether N-13) | < 0.05 | –
2 | CC[C@H](C)[C@@H]1NC(=O)[C@@H](CCCNC(=N)N)NC(=O)[C@H](CC(=O)O)NC(=O)[C@H](Cc2cnc[nH]2)NC(=O)CN(C)C(=O)[C@H](Cc2ccc(-c3ccc(NC(=O)c4cccc(C(=O)O)c4)cc3)cc2)NC(=O)[C@H](Cc2ccc(-c3ccc(C(=O)O)cc3)cc2)NC(=O)[C@H](CC2CCCCC2)NC(=O)CSC[C@@H](C(=O)NCC(N)=O)NC(=O)[C@H](CC(C)C)NC(=O)[C@H](Cc2cnc[nH]2)NC(=O)[C@H](C(C)C)NC(=O)[C@@H]2c3ccccc3CCN2C1=O [Example 374] ({CH2CO}-[Cha][Bip(4'-COOH)][Bip(4'-(3-HOOC-benzamido))][Sar]HD[dR]I[Tiq1c(1S)]VHLCG-NH2; thioether N-13) | – | < 0.05
3 | CC[C@H](C)[C@@H]1NC(=O)[C@@H](CCCNC(=N)N)NC(=O)[C@H](CC(=O)O)NC(=O)[C@H](Cc2cnc[nH]2)NC(=O)CN(C)C(=O)[C@H](Cc2ccc(-c3ccc(NC(=O)c4cccc(OCC(=O)O)c4)cc3)cc2)NC(=O)[C@H](Cc2ccc(-c3ccc(C(=O)O)cc3)cc2)NC(=O)[C@H](CC2CCCCC2)NC(=O)CSC[C@@H](C(=O)NCC(N)=O)NC(=O)[C@H](CC(C)C)NC(=O)[C@H](Cc2cnc[nH]2)NC(=O)[C@H](C(C)C)NC(=O)[C@@H]2c3ccccc3CCN2C1=O [Example 375] ({CH2CO}-[Cha][Bip(4'-COOH)][Bip(4'-NH)](Benzoyl(3-OCH2COOH))[Sar]HD[dR]I[Tiq1c(1S)]VHLCG-NH2; thioether N-13) | < 0.05 | –
4 | CC[C@H](C)[C@@H]1NC(=O)[C@@H]2CCN2C(=O)[C@H]([C@@H](C)CC)NC(=O)[C@@H](CCCNC(=N)N)NC(=O)[C@H](CC(=O)O)NC(=O)[C@H](Cc2ccc(O)cc2)NC(=O)CN(C)C(=O)[C@H](Cc2ccc(-c3ccc(NC(=O)c4ccccc4)cc3)cc2)NC(=O)[C@H](Cc2ccc(-c3ccccc3)cc2)NC(=O)[C@H](C(C)(C)C)NC(=O)CSC[C@@H](C(=O)NCC(N)=O)NC(=O)[C@H](CC(C)C)NC(=O)[C@H](Cc2ccc(O)cc2)NC1=O [Example 376] ({CH2CO}-[Tle][Bip][Bip(4'-NHBz)][Sar]YD[dR]I[Aze]IYLCG-NH2; thioether N-13) | 0.05 to 0.2 | –
5 | CC[C@H](C)[C@@H]1NC(=O)[C@@H]2CCN2C(=O)[C@H]([C@@H](C)CC)NC(=O)[C@@H](CCCNC(=N)N)NC(=O)[C@H](CC(=O)O)NC(=O)[C@H](Cc2ccc(O)cc2)NC(=O)CN(C)C(=O)[C@H](Cc2ccc(-c3ccc(NC(=O)c4cccc(C(=O)O)c4)cc3)cc2)NC(=O)[C@H](Cc2ccc(-c3ccccc3)cc2)NC(=O)[C@H](C(C)(C)C)NC(=O)CSC[C@@H](C(=O)NCC(N)=O)NC(=O)[C@H](CC(C)C)NC(=O)[C@H](Cc2ccc(O)cc2)NC1=O [Example 377] ({CH2CO}-[Tle][Bip][Bip(4'-(3-HOOC-benzamido))][Sar]YD[dR]I[Aze]IYLCG-NH2; thioether N-13) | – | 0.05 to 0.2
6 | CC[C@H](C)[C@@H]1NC(=O)[C@@H]2CCN2C(=O)[C@H]([C@@H](C)CC)NC(=O)[C@@H](CCCNC(=N)N)NC(=O)[C@H](CC(=O)O)NC(=O)[C@H](Cc2ccc(O)cc2)NC(=O)CN(C)C(=O)[C@H](Cc2ccc(-c3ccc(NC(=O)c4cccc(OCC(=O)O)c4)cc3)cc2)NC(=O)[C@H](Cc2ccc(-c3ccccc3)cc2)NC(=O)[C@H](C(C)(C)C)NC(=O)CSC[C@@H](C(=O)NCC(N)=O)NC(=O)[C@H](CC(C)C)NC(=O)[C@H](Cc2ccc(O)cc2)NC1=O [Example 378] ({CH2CO}-[Tle][Bip][Bip(4'-NH)](Benzoyl(3-OCH2COOH))[Sar]YD[dR]I[Aze]IYLCG-NH2; thioether N-13) | – | < 0.05
7 | CC[C@H](C)[C@@H]1NC(=O)[C@@H]2CCCN2C(=O)[C@H]([C@@H](C)CC)NC(=O)[C@@H](CCCNC(=N)N)NC(=O)[C@H](CC(=O)O)NC(=O)[C@H](Cc2ccccn2)NC(=O)CN(C)C(=O)[C@H](Cc2ccc(-c3ccc(NC(=O)[C@H](Cc4cn(CC(=O)O)c5ccccc45)NC(C)=O)cc3)cc2)NC(=O)[C@H](Cc2ccc(-c3ccccc3)cc2)NC(=O)[C@H](C(C)(C)C)NC(=O)CSC[C@@H](C(=O)NCC(N)=O)NC(=O)[C@H](CC(C)C)NC(=O)[C@H](Cc2cccc(C(N)=O)c2)NC1=O [Example 379] ({CH2CO}-[Tle][Bip][Bip(4'-NH)](X11)[Sar][2Pal]D[dR]IPI[Phe(3-CONH2)]LCG-NH2; thioether N-13) | – | 0.05 to 0.2
8 | CC[C@H](C)[C@@H]1NC(=O)[C@@H]2CCCN2C(=O)[C@H]([C@@H](C)CC)NC(=O)[C@@H](CCCNC(=N)N)NC(=O)[C@H](CC(=O)O)NC(=O)[C@H](Cc2ccccn2)NC(=O)CN(C)C(=O)[C@H](Cc2ccc(-c3ccc(NC(=O)[C@H](Cc4cn(CC(=O)O)c5ccccc45)NC(=O)c4ccccc4)cc3)cc2)NC(=O)[C@H](Cc2ccc(-c3ccccc3)cc2)NC(=O)[C@H](C(C)(C)C)NC(=O)CSC[C@@H](C(=O)NCC(N)=O)NC(=O)[C@H](CC(C)C)NC(=O)[C@H](Cc2cccc(C(N)=O)c2)NC1=O [Example 380] ({CH2CO}-[Tle][Bip][Bip(4'-NH)](X42)[Sar][2Pal]D[dR]IPI[Phe(3-CONH2)]LCG-NH2; thioether N-13) | 0.05 to 0.2 | –
9 | CC(C)C[C@@H]1NC(=O)[C@H](Cc2ccc(O)cc2)NC(=O)[C@H](C(C)C)NC(=O)[C@@H]2Cc3ccccc3CN2C(=O)[C@H](C(C)C)NC(=O)[C@@H](CCCNC(=N)N)NC(=O)[C@H](CC(=O)O)NC(=O)[C@@H]2CCCN2C(=O)CN(C)C(=O)[C@H](Cc2ccc(-c3ccc(NC(=O)c4cccc(-c5ccc(C(=O)O)cc5)c4)cc3)cc2)NC(=O)[C@H](Cc2ccc(-c3ccc(C(=O)O)cc3)cc2)NC(=O)[C@H](CC2CCCCC2)NC(=O)CSC[C@@H](C(=O)NCC(N)=O)NC1=O [Example 381] ({CH2CO}-[Cha][Bip(4'-COOH)][Bip(4'-NH)](X67)[Sar]PD[dR]V[Tic]VYLCG-NH2; thioether N-13) | – | 0.05 to 0.2
10 | CC(C)C[C@@H]1NC(=O)[C@H](CCCNC(=N)N)NC(=O)[C@H](C(C)C)NC(=O)[C@@H]2CCCN2C(=O)[C@H](C(C)C)NC(=O)[C@@H](CCCNC(=N)N)NC(=O)[C@H](CC(=O)O)NC(=O)[C@@H]2CCCN2C(=O)CN(C)C(=O)[C@H](Cc2ccc(-c3ccc(NC(=O)c4cccc5c4ccn5CC(=O)O)cc3)cc2)NC(=O)[C@H](Cc2ccc(-c3ccccc3)cc2)NC(=O)[C@H](CN2CCOCC2)NC(=O)CSC[C@@H](C(=O)NCC(N)=O)NC1=O [Example 382] ({CH2CO}-[Ala(morpholin-4-yl)][Bip][Bip(4'-NH)](X75)[Sar]PD[dR]VPVRLCG-NH2; thioether N-13) | – | < 0.05
